Values quoted from earlier work, collected in paper PMC10046020, “In Silico Screening and Optimization of Cell-Penetrating Peptides Using Deep Learning Methods” (Biomolecules, 2023).
Read-outs that look alike come from different tables or passages of the source.

Conditions: cited from earlier work; for class (CPP / Non-CPP), Train Set: Spreadsheet S2: peptides collected from CellPPD
Excerpt: Supplement biomolecules-13-00522-s001.zip/biomolecules-2162660_Supplementary Spreadsheets S1 Test Set.csv, table | column: class || Supplement biomolecules-13-00522-s001.zip/biomolecules-2162660_Supplementary Spreadsheets S2 Train Set.csv, table | column: class

[1] = Spreadsheet S1: 150 CPP and 150 non-CPP peptides collected from CellPPD, MLCPP, CPPsite 2.0, Lifetein and other publications
[2] = MLCPP, CPPsite 2.0, Lifetein and other publications

Substance	class (CPP / Non-CPP), Test Set [1]	class (CPP / Non-CPP), Test Set	further results
KLALKALKAALKPA	Non-CPP		
KLALKLACKALKAA	Non-CPP		
KLDFLGEGQFATVYKARDKNT	Non-CPP		
KLFNGNEVCLDPKEKWVQKVVQIFLK	Non-CPP		
KMTRAQRRAAARRNRWTAR	CPP		
KNLRRIIRKGIHIIKKYF	CPP		
KNNLKECGLY		CPP	
KRKKKGKGLGKKRDPCLRKYK	CPP		
KRKRWHW		CPP	
KWRRKLKKLRPKKKRKV	CPP		
LALALALALALALAKLAKLAKLAKLAKIKKIKKKIK	CPP		
LAQLLAQLLAQLGGGGRRRRRRRRR	CPP		
LELELELELELELELELELE	CPP		
LIKRKRLI		Non-CPP	
LILIGRRRRRRRRGC	CPP		
LIRLWSHLIHIWFQNRRLKWKKKC	CPP		
LKKLAELAHKLLKLG	CPP		
LKKLLKLLKKLLKLAG	CPP		
LLATTALLKTTALLKTTA	Non-CPP		
LLGDFFRKSKEKIGKEFKRIVQRIKDFLRNLVPRTES	CPP		
LLGKGNLKALAALAKKIL	Non-CPP		
LLIILRRPIRKQAHAHSK	CPP		
LLKHTALLKTTALLKTTA	Non-CPP		

Substance	class (CPP / Non-CPP), Test Set [1]	class (CPP / Non-CPP), Test Set	further results
LLKTTALLKTTALHKTTA	Non-CPP		
LLKTTELLKTTELLKTTS	Non-CPP		
LMLRTVGYKFHCSLPVNAVHCSLK	Non-CPP		
LNSAGYLLGKPKALAALAK	Non-CPP		
LNSLGYLLGKALAALAKKIL	Non-CPP		
LRHHLRHLLRHLRHLLRHLRHHLRHLLRH	CPP		
LRKLRKRLLR		CPP	
LSNTLAELYVREHLR	Non-CPP		
LVVLGKLYGRKKRRQRRR	CPP		
MAPTKRKGSCPGAAPNKKP	CPP		
MDMVAIDDQDYIMCHF	Non-CPP		
MEPLWWANYDNTQ		Non-CPP	
MIEMAM		Non-CPP	
MIRIAALNASSTIEDDHEGSFKSHKIQTKEAQEAE	Non-CPP		
MLPRLICINDYEQHAKSVLPKSIYDYYRSGANDEE	Non-CPP		
MNASQVAGEEAPQSGHSVKVVLVGDGGCGKTSLMMVF	Non-CPP		
MPVMFYFSARNEVALVLVYFNFMIMMMH	Non-CPP		
MVMEMRNF		Non-CPP	
NAATATRGRSAASRPTQRPRAPARSASRPRRPVQ	CPP		
NAGGWFSSWFFSNTANEDQDDMLPSTSAAAGETNYARN	Non-CPP		
NAKTRRHERRRKLAIER	CPP		
NSDMAHERKFMWQYNR	Non-CPP		
NTCTWLKY		CPP	

Substance	class (CPP / Non-CPP), Test Set [1]	class (CPP / Non-CPP), Test Set	further results
NTCTWLKYHS		CPP	
NTGTWLKYHS		CPP	
NWVTMKDSADSIDHECPRYFDTCERSCKISE	Non-CPP		
NYQRRCKNQN		CPP	
NYQWRCKNQN		CPP	
NYRWRCK		CPP	
NYRWRCKN		CPP	
NYRWRCKNQ		CPP	
PDEIGGKFPTAYVQDYLINPE	Non-CPP		
PKKGSKKAVTKAQKKDGA	CPP		
PKKKRKVRRRRRRRPQMQQNVFQYPGAGMVPQGEANF	CPP		
PLDGMCDKGNYTQ		Non-CPP	
PLGPVVHKCCPGFGGLQWLPLLWNWYQNMWGN	Non-CPP		
PPPPPPPPPPPLRR	CPP		
PVVHLTLRQAGDDFGR	Non-CPP		
PVVHLTLRQAGDDFSR	Non-CPP		
PVVHLTLRQEGDDFSR	Non-CPP		
QAHVHVWHKYSVKTVYH	Non-CPP		
QEHDYGNLDLCN		Non-CPP	
QGARNYKCCFAWC		Non-CPP	
QIFWDSRHPSQH		Non-CPP	
QIMISA		Non-CPP	
QKVAFCDCCYDDIYTVEFKGCIFRPK	Non-CPP		

Substance	class (CPP / Non-CPP), Test Set [1]	class (CPP / Non-CPP), Test Set	further results
QNLGNDWAVGHLM		Non-CPP	
QNLGNQWAVGHLM		Non-CPP	
QQPFVQQQQPFVQQ	Non-CPP		
QSGAKPGHCEWQSTHLKNCEKVNDIRQPPHHQRS	Non-CPP		
QWGYGGMPYGGYGGMGGYGMGGYGMGY	Non-CPP		
RARRNRRARILFQYRARNRARN	CPP		
REDEDEIEW		CPP	
RFTFHFRFEFTFHFE	CPP		
RFVHNC		Non-CPP	
RGGRLCYCRRRFCVCVGR	CPP		
RHHLRHLRRHLRHLLRHLRHHLRHLRRHLRHLL	CPP		
RHVYHVLLSQ		CPP	
RKGWFKAMKSIAKFIAKEKLKEHL	CPP		
RKKAAA		CPP	
RKKNPNCRR		CPP	
RKKRRQRRRGKKKKKKKKKKKKKKKGRKKRRQRRR	CPP		
RLHRRLHRRLHRLHRRLHRLHRRLHRRLH	CPP		
RLLRLLRLL		CPP	
RLRLRLRLRLRLRLRLKLLKLLKLLKLLKKKKKKKGYK	CPP		
RPEGQNYTEGIAVVF	Non-CPP		
RPKRPTTLNLFPQVPRSQDT	CPP		
RQIKIWFQNRRMKWKKC	CPP		
RQIKIWFQNRRMKWKKGG	CPP		

Substance	class (CPP / Non-CPP), Test Set [1]	class (CPP / Non-CPP), Test Set	further results
RRLLRRLRR		CPP	
RRLRHLRHHYRRRWHRFR	CPP		
RRLTLRQLLGLGSRRRRRSR	CPP		
RRRRRHHH		CPP	
RRRRRRRGGIYLATALAKWALKQ			class (CPP / Non-CPP), Train Set [2]: CPP
RRRRRRRGGIYLATALAKWALKQGF			class (CPP / Non-CPP), Train Set [2]: CPP
RRRRRRRGGKLAKLAKKLAKLAK			class (CPP / Non-CPP), Train Set [2]: CPP
RRRRRRRHHH		CPP	
RRRRRRRRC		CPP	
RRRRRRRRGC		CPP	
RRRRRRRRK		CPP	
RRRRRRRRRETWWETWWTEW	CPP		
RRRRRRRRRR		CPP	
RRRRRRRRRRWWWWWW	CPP		
RRRRRRWWW		CPP	
RRRRWWWW		CPP	
SARRRRRREW		CPP	
SDPSVPLRPEEDELIDQ	Non-CPP		
SHMMGEFWGDEDMCYRHQRSYET	Non-CPP		
